Key:
Assay in all cases: biochemical
Assay type in all cases: biochemical
382 unique human kinases [1] = target: T1, 382 unique human kinases (Homo sapiens, UniProt P06213); conditions: kinase IR, compound 10 uM; for remaining activity at 10 µM: read-out: % Enzyme Activity (relative to DMSO controls)
T1 construct: purchased Reaction Biology (HotSpot contract assay)

382 unique human kinases [2] = target: T2, 382 unique human kinases (Homo sapiens, UniProt P36897); conditions: kinase ALK5/TGFBR1, compound 10 uM; for remaining activity at 10 µM: read-out: % Enzyme Activity (relative to DMSO controls)
T2 construct: purchased Reaction Biology (HotSpot contract assay)
T2 sequence (P36897 34-503): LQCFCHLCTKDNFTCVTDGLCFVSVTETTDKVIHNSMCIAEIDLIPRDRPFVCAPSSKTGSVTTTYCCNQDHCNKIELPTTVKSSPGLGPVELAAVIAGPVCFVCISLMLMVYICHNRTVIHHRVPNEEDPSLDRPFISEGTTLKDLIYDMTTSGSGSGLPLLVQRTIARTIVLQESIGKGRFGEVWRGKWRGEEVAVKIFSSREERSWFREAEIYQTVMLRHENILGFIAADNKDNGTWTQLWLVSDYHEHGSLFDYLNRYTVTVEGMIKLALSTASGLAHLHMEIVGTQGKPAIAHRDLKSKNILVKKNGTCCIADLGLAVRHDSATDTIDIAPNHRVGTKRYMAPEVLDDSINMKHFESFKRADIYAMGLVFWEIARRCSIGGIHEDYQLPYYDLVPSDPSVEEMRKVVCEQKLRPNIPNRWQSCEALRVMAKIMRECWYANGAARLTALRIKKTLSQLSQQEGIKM

382 unique human kinases [3] = target: T3, 382 unique human kinases (Homo sapiens, UniProt Q04759); conditions: PKCtheta, compound at 10 uM, duplicate values; for remaining activity at 10 µM: read-out: % Enzyme Activity (relative to DMSO controls)
T3 construct: purchased Reaction Biology (HotSpot contract assay)

382 unique human kinases [4] = target: T4, 382 unique human kinases (Homo sapiens, UniProt Q13627); conditions: DYRK1/DYRK1A, 10 uM; for remaining activity at 10 µM: read-out: % Enzyme Activity (relative to DMSO controls)
T4 construct: purchased Reaction Biology (HotSpot contract assay)

382 unique human kinases [5] = target: T5, 382 unique human kinases (Homo sapiens, UniProt Q16566); conditions: kinase CAMK4, compound 10 uM; for remaining activity at 10 µM: read-out: % Enzyme Activity (relative to DMSO controls)
T5 construct: purchased Reaction Biology (HotSpot contract assay)
T5 sequence (Q16566 1-473): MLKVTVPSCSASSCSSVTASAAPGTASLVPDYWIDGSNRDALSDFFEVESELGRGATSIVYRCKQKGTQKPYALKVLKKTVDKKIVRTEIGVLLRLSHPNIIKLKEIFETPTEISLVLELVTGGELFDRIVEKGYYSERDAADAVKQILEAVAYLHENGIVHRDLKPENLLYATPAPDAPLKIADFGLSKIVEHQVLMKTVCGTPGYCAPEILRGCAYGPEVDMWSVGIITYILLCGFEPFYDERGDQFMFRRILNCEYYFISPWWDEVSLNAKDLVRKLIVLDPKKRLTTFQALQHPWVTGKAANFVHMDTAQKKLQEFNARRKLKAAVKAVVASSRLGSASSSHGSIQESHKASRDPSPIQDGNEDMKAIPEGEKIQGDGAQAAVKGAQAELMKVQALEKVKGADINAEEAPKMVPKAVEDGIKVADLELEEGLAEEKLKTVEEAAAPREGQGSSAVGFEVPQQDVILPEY

382 unique human kinases [6] = target: T6, 382 unique human kinases (Homo sapiens, UniProt Q9Y2U5); conditions: MEKK2, compound at 10 uM, duplicate values; for remaining activity at 10 µM: read-out: % Enzyme Activity (relative to DMSO controls)
T6 construct: purchased Reaction Biology (HotSpot contract assay)
T6 sequence (Q9Y2U5 1-619): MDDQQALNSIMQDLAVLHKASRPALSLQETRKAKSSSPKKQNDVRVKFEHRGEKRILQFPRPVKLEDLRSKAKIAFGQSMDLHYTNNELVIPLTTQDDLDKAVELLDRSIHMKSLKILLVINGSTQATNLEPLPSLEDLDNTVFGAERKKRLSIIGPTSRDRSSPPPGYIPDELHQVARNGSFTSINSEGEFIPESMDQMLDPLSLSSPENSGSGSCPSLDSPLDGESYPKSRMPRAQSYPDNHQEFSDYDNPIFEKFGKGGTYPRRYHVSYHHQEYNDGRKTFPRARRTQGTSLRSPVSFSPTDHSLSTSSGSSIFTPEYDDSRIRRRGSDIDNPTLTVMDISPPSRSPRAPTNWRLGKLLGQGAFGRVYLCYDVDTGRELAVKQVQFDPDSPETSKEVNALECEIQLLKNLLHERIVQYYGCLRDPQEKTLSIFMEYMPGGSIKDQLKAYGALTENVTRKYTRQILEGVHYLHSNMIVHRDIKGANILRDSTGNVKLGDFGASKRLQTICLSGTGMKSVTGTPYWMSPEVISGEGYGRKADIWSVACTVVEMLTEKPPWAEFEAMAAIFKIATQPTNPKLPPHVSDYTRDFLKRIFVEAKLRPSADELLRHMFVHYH

382 unique human kinases [7] = target: T7, 382 unique human kinases (Homo sapiens, UniProt P10721, A829P); conditions: c-Kit (A829P), [ATP] 50 µM, compound 10 uM; for remaining activity at 10 µM: read-out: % Enzyme Activity (relative to DMSO controls)
T7 construct: purchased Reaction Biology (HotSpot contract assay)

382 unique human kinases [8] = target: T8, 382 unique human kinases (Homo sapiens, UniProt P10721, D816V); conditions: c-Kit (D816V), [ATP] 10 µM, compound 10 uM; for remaining activity at 10 µM: read-out: % Enzyme Activity (relative to DMSO controls)
T8 construct: purchased Reaction Biology (HotSpot contract assay)

382 unique human kinases [9] = target: T9, 382 unique human kinases (Homo sapiens, UniProt P54756); conditions: EPHA5, [ATP] 30 µM, compound 10 uM; for remaining activity at 10 µM: read-out: % Enzyme Activity (relative to DMSO controls)
T9 construct: purchased Reaction Biology (HotSpot contract assay)

382 unique human kinases [10] = target: T10, 382 unique human kinases (Homo sapiens, UniProt P57059); conditions: SIK1, [ATP] 30 µM
T10 construct: purchased Reaction Biology (HotSpot contract assay)

382 unique human kinases [11] = target: T11, 382 unique human kinases (Homo sapiens, UniProt Q8N568); conditions: DCAMKL2, 10 uM; for remaining activity at 10 µM: read-out: % Enzyme Activity (relative to DMSO controls)
T11 construct: purchased Reaction Biology (HotSpot contract assay)

[12] = compound 10 uM, read-out: % Enzyme Activity (relative to DMSO controls)

T7 sequence (P10721 26-976 A829P): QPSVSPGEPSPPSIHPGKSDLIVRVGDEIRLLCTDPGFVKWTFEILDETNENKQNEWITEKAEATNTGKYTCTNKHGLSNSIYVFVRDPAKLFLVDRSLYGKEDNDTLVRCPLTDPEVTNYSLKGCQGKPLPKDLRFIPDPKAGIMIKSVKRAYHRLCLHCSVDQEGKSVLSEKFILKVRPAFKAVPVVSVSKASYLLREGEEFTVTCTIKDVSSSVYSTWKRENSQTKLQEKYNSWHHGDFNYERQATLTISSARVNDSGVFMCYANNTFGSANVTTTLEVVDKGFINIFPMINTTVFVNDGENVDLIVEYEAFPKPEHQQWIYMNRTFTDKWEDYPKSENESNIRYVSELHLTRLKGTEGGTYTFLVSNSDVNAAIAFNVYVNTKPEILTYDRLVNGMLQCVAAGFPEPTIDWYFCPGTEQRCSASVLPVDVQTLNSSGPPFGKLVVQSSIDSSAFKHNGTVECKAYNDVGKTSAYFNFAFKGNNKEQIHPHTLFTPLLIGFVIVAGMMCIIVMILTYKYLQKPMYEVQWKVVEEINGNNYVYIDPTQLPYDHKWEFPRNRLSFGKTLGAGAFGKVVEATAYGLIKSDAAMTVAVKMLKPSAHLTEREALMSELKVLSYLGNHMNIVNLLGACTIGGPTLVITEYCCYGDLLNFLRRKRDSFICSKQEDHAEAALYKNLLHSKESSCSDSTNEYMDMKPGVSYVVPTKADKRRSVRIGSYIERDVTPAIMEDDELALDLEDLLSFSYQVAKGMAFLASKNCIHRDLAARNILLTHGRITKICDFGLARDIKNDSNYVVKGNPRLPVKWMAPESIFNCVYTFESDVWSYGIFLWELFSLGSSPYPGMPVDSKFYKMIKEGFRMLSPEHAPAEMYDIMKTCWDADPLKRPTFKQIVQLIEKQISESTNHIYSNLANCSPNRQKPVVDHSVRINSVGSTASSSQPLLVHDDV
T9 sequence (P54756 25-1037): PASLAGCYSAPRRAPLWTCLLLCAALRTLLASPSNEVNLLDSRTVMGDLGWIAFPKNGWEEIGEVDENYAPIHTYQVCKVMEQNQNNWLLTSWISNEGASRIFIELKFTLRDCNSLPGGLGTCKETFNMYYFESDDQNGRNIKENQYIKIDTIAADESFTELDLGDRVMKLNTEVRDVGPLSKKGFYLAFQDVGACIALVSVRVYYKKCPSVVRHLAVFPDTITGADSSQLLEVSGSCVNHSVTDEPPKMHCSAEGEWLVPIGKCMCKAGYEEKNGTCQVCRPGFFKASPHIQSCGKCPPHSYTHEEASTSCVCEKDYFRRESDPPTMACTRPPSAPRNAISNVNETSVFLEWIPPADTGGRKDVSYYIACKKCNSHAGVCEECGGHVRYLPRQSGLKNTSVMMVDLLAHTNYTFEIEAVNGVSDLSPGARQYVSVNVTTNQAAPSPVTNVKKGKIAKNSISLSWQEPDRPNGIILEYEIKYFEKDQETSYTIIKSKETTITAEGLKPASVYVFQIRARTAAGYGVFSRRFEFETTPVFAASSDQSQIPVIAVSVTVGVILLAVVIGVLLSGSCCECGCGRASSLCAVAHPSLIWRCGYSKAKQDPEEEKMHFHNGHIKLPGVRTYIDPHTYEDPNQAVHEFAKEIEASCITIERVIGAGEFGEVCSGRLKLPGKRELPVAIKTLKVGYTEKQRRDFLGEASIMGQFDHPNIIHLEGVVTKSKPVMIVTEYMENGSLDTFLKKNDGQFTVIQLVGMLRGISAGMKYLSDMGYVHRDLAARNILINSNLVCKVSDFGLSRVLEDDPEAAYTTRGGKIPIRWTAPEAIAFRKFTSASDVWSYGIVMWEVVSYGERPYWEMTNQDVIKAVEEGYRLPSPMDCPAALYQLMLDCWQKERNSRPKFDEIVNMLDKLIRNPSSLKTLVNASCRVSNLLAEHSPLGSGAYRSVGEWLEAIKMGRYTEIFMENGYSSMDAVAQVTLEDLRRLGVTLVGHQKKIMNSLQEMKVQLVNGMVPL
T11 sequence (Q8N568 whole entry): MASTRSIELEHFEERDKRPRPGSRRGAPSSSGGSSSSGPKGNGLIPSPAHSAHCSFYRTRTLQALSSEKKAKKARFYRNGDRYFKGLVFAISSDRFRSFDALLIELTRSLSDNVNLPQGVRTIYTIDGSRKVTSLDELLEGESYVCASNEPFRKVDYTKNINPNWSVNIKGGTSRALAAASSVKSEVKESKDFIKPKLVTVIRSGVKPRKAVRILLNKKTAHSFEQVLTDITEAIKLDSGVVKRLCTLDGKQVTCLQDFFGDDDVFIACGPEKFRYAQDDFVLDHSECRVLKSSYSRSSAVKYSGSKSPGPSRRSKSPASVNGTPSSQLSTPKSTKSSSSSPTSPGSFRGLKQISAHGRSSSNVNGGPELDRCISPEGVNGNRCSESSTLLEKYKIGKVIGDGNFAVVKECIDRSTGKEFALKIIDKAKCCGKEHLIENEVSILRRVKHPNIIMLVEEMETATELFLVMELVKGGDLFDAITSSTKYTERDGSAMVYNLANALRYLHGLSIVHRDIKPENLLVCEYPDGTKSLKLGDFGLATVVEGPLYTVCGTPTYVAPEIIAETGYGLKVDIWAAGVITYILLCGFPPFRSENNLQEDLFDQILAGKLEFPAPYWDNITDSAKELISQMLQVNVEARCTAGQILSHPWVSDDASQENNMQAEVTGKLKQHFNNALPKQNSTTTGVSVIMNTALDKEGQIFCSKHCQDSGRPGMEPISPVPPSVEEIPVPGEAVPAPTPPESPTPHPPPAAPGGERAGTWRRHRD
T8 sequence (P10721 26-976 D816V): as the sequence (P10721 26-976 A829P) above, with D791V, P804A counted along it
T1 sequence (P06213 28-1382): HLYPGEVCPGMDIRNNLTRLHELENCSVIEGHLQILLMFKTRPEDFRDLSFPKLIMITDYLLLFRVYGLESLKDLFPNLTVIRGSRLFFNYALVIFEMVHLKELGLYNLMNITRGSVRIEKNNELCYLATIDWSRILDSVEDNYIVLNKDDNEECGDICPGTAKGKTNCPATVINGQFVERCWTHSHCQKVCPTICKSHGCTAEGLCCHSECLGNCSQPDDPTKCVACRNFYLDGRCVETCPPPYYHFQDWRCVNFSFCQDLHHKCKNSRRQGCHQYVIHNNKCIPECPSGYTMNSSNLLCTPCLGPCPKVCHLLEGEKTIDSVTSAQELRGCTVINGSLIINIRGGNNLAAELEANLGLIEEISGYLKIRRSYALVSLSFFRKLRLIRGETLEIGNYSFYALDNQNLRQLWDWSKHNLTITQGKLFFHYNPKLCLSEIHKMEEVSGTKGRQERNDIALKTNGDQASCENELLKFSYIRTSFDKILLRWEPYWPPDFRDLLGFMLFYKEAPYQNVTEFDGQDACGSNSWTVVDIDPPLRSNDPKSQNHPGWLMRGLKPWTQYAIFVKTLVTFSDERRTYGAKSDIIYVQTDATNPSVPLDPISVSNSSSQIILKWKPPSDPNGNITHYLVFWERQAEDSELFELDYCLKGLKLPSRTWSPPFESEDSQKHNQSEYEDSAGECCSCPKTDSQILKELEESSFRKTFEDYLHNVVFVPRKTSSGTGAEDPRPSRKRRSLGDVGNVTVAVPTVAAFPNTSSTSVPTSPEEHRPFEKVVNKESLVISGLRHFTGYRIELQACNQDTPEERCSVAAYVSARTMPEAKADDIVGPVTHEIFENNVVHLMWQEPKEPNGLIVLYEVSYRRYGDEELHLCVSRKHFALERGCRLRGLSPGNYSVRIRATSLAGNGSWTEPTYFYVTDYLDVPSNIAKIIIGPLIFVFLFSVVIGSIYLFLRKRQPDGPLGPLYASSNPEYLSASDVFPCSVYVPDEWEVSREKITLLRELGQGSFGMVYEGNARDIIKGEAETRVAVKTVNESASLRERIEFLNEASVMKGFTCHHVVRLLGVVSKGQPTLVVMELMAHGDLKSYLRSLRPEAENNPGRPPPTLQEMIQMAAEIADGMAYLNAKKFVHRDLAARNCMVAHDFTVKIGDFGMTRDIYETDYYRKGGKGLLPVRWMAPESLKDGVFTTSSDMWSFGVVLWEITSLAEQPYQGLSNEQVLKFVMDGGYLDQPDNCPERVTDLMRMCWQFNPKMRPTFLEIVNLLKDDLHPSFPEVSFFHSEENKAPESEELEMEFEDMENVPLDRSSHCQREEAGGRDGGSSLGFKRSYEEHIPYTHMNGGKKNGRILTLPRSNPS
T10 sequence (P57059 whole entry): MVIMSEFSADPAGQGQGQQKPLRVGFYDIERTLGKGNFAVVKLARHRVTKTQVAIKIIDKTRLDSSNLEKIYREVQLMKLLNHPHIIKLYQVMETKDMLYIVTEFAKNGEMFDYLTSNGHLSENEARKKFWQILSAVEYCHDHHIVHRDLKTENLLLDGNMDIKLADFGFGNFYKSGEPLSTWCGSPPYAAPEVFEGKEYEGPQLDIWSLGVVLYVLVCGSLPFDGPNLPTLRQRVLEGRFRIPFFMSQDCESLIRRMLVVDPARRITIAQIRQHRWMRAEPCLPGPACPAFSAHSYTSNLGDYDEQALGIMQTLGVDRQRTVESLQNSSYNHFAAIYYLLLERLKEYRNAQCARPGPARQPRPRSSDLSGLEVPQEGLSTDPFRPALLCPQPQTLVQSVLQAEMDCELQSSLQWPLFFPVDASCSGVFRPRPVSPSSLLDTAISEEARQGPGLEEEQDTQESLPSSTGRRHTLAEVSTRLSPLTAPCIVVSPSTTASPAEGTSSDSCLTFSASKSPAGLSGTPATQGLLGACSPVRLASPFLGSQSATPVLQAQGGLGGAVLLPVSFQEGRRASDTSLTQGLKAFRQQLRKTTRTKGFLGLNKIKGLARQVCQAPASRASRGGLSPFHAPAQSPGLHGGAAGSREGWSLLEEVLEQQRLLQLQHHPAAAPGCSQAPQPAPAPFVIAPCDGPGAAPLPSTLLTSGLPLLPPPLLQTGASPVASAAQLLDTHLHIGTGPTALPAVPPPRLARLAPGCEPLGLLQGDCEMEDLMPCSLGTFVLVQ

Structure (SMILES) | remaining activity at 10 µM (382 unique human kinases [1]) | remaining activity at 10 µM (382 unique human kinases [2]) | remaining activity at 10 µM (382 unique human kinases [3]) | remaining activity at 10 µM (382 unique human kinases [4]) | remaining activity at 10 µM (382 unique human kinases [5]) | remaining activity at 10 µM (382 unique human kinases [6]) | remaining activity at 10 µM (382 unique human kinases [7]) | remaining activity at 10 µM (382 unique human kinases [8]) | remaining activity at 10 µM (382 unique human kinases [9]) | remaining activity at 10 µM (382 unique human kinases [10]; [12]) | remaining activity at 10 µM (382 unique human kinases [11]) | other results
CC(C)c1cc(-c2n[nH]c(=O)n2-c2ccc3c(ccn3C)c2)c(O)cc1O [Ganetespib (STA9090)] | 87% | 90.1% | 148% | 69.6% | 91% | 109% | – | – | – | – | – | –
CC(C)c1cc(-c2n[nH]c(=O)n2-c2ccc3c(ccn3C)c2)c(O)cc1O [Ganetespib] | – | – | – | – | – | – | 49.5% | 30.4% | 55.6% | 11.4% | 96.7% | remaining activity at 1 µM (382 unique human kinases [10]; compound 1 uM, read-out: % Enzyme Activity (relative to DMSO controls)): 75.9%
CCNC(=O)c1noc(-c2cc(C(C)C)c(O)cc2O)c1-c1ccc(CN2CCOCC2)cc1 [Luminespib] | – | – | – | – | – | – | 85.3% | 68.9% | 79.4% | 80.3% | 97.8% | % Enzyme Activity (relative to DMSO controls) (382 unique human kinases [7]): 84.14%; % Enzyme Activity (relative to DMSO controls) (382 unique human kinases [8]): 67.99%; % Enzyme Activity (relative to DMSO controls) (382 unique human kinases [9]): 78.40%; % Enzyme Activity (relative to DMSO controls) (382 unique human kinases [10]; compound 10 uM): 79.13%; % Enzyme Activity (relative to DMSO controls) (382 unique human kinases [11]): 96.30%
CCNC(=O)c1noc(-c2cc(C(C)C)c(O)cc2O)c1-c1ccc(CN2CCOCC2)cc1 [Luminespib (AUY-922)] | 96.8% | 94.7% | 102% | 97.2% | 93.7% | 123% | – | – | – | – | – | % Enzyme Activity (relative to DMSO controls) (382 unique human kinases [1]): 96.77%; % Enzyme Activity (relative to DMSO controls) (382 unique human kinases [2]): 93.53%; % Enzyme Activity (relative to DMSO controls) (382 unique human kinases [3]): 101.70%; % Enzyme Activity (relative to DMSO controls) (382 unique human kinases [4]): 94.59%; % Enzyme Activity (relative to DMSO controls) (382 unique human kinases [5]): 90.30%; % Enzyme Activity (relative to DMSO controls) (382 unique human kinases [6]): 118.79%
